Structures can show the parent of a compound that is named as a salt.
Columns and labels:
[1] = target: T1, pseudo-kinase domain (JH2, amino-acids 536-812) of human V617F mutant JAK2 (Homo sapiens, UniProt O60674, F794H/V617F/W659A/W777A); assay: JAK2 LanthaScreen JH2-V617F Binding Assay; conditions: 1 hour at 25° C.
T1 construct: pseudo-kinase domain (JH2, amino-acids 536-812 with 3 surface mutations W659A, W777A, F794H); purchased BPS Bioscience 79498; host or cells: baculovirus expression system
T1 sequence (O60674 536-812 V617F/W659A/W777A/F794H): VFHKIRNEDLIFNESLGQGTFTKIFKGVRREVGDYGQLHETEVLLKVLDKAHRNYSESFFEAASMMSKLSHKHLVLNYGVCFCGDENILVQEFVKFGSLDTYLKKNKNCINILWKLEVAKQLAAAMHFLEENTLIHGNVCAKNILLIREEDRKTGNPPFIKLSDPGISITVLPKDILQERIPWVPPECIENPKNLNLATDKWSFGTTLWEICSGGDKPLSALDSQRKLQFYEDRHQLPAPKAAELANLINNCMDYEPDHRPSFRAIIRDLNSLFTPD
Summary of the method: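 Competition of compounds with a fluorescent tracer (50 nM) for the biotinylated domain (0.26 nM), detected via streptavidin-Tb (0.25 nM) after 1 h at 25° C in pH 7.5 Tris buffer containing glycerol, BSA and Brij-35. ATP at 2 mM gave background. IC50 by four-parameter fit.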

[2] = target: T2, pseudo-kinase domain (JH2, amino-acids 536-812) of human Wild Type JAK2 (Homo sapiens, UniProt O60674, F794H/W659A/W777A); assay: JAK2 LanthaScreen JH2-WT Binding Assay; conditions: 1 hour at 25° C.
T2 construct: pseudo-kinase domain (JH2, amino-acids 536-812 with 3 surface mutations W659A, W777A, F794H); purchased BPS Bioscience 79463; host or cells: baculovirus expression system
T2 sequence (O60674 536-812 W659A/W777A/F794H): as the sequence (O60674 536-812 V617F/W659A/W777A/F794H) above, with F82V counted along it
Summary of the method: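 Binding was measured by TR-FRET between streptavidin-Tb (0.25 nM) on biotinylated JH2 (0.145 nM) and 50 nM fluorescent tracer, with compound dose series, 1 h at 25° C; IC50 fitted.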

[3] = target: T3, catalytic domain (JH1, amino acids 826-1132) of human JAK2 (Homo sapiens, UniProt O60674); assay: JAK2 LanthaScreen JH1 Binding Assay; conditions: 2 hours at 25° C.
T3 construct: catalytic domain (JH1, amino acids 826-1132) of human JAK2; purchased Carna Biosciences 08-445-20N; host or cells: baculovirus expression system
T3 sequence (O60674 826-1132): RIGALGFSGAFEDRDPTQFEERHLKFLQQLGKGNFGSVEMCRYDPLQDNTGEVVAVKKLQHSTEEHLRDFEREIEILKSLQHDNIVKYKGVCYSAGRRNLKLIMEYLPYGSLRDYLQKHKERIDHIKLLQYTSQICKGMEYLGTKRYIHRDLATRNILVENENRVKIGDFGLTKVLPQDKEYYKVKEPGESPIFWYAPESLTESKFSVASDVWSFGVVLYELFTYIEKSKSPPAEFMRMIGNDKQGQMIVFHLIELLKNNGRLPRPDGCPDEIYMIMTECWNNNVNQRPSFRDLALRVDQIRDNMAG
Summary of the method: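 FLAG-tagged biotinylated JAK2 JH1 (1.5 nM) incubated with compounds, 50 nM fluorescent tracer and 0.5 nM streptavidin-Tb in Tris pH 7.5 buffer with MgCl2, BSA, DTT, 2 h at 25 °C.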

[4] = target: T4, catalytic domain (JH1, amino acids 808-1132) of human JAK2 (Homo sapiens, UniProt O60674); assay: JAK2 HTRF Enzyme Activity Assay; type: biochemical; conditions: ATP 30 μM, read-out: ENZ 30UMATP
T4 construct: catalytic domain (JH1, amino acids 808-1132) of human JAK2; His (N); purchased BPS Bioscience 40450; host or cells: baculovirus expression system
T4 sequence (O60674 808-1132): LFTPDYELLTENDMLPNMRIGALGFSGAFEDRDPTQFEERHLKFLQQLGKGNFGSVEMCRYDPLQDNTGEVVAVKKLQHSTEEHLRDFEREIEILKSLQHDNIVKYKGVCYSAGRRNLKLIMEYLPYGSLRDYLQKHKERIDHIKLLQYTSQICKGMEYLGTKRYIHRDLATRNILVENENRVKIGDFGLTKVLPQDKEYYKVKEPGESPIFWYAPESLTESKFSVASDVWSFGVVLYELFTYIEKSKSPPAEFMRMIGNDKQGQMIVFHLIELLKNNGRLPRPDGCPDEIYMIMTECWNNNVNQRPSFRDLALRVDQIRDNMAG
Summary of the method: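 His-tagged JAK2 JH1 from baculovirus, 0.015 nM, incubated with compound, ATP at 30 μM or 1 mM and 500 nM biotinylated peptide, pH 7.5, 60 min at 25° C. HTRF read-out via Eu-anti-phosphotyrosine and streptavidin-APC after EDTA stop; IC50 from four-parameter dose-response fit.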

Compound | IC50 [1] | IC50 [2] | IC50 [3] | IC50 [4]
CCS(=O)(=O)N1CC2(C1)CC1(C2)C(=O)N(C)c2cnc3[nH]c(-c4cnn(CC5CCOCC5)c4)c(-c4ccc5c(cnn5C)c4)c3c21 [Example 97, 1-(Ethylsulfonyl)-6″-methyl-1″-(1-methyl-1H-indazol-5-yl)-2″-(1-((tetrahydro-2H-pyran-4-yl)methyl)-1H-pyrazol-4-yl)-3″,6″-dihydro-7″H-dispiro[azetidine-3,1′-cyclobutane-3′,8″-dipyrrolo[2,3-b:3′,2′-d]pyridin]-7″-one, trifluoroacetate salt] | ≤ 100 nM | ≤ 100 nM | 1250 to 2500 nM | 1250 to 2500 nM
COC(=O)NC1CC(CC#N)(N2CCC3(CC2)C(=O)N(C)c2cnc4[nH]c(-c5cnn(C)c5)c(-c5ccccc5)c4c23)C1 (single isomer, unassigned) [Example 27, Methyl (3-(cyanomethyl)-3-(6-methyl-2-(1-methyl-1H-pyrazol-4-yl)-7-oxo-1-phenyl-6,7-dihydro-3H-spiro[dipyrrolo[2,3-b:3′,2′-d]pyridine-8,4′-piperidin]-1′-yl)cyclobutyl)carbamate] | ≤ 100 nM | ≤ 100 nM | 100 to 500 nM | 100 to 500 nM
CN1C(=O)C2(CCN(c3ccncn3)CC2)c2c1cnc1[nH]c(-c3cnn(C)c3)c(C3=CCOCC3)c21 [Example 20, 1-(3,6-Dihydro-2H-pyran-4-yl)-6-methyl-2-(1-methyl-1H-pyrazol-4-yl)-(1-(pyrimidin-4-yl)-3,6-dihydro-7H-spiro[dipyrrolo[2,3-b:3′,2′-d]pyridine-8,4′-piperidin]-7-one, trifluoroacetate salt] | 100 to 500 nM | 100 to 500 nM | > 2500 nM | > 2500 nM
COC(=O)N1CCC2(CC1)CC1(C2)C(=O)N(C)c2cnc3[nH]c(-c4cnn(C)c4)c(-c4ccc5c(cnn5C)c4)c3c21 [Example 61, Methyl 6-methyl-1-(1-methyl-1H-indazol-5-yl)-2-(1-methyl-1H-pyrazol-4-yl)-7-oxo-6,7-dihydro-3H-dispiro[dipyrrolo[2,3-b:3′,2′-d]pyridine-8,1′-cyclobutane-3′,4″-piperidine]-1″-carboxylate, trifluoroacetate salt] | ≤ 100 nM | ≤ 100 nM | 500 to 1250 nM | 500 to 1250 nM
CCS(=O)(=O)N1CC2(C1)CC1(C2)C(=O)N(C)c2cnc3[nH]c(-c4cnn(C(C)C)c4)c(-c4ccc5c(cnn5C)c4)c3c21 [Example 54, 1-(Ethylsulfonyl)-2″-(1-isopropyl-1H-pyrazol-4-yl)-6″-methyl-1″-(1-methyl-1H-indazol-5-yl)-3″,6″-dihydro-7″H-dispiro[azetidine-3,1′-cyclobutane-3′,8″-dipyrrolo[2,3-b:3′,2′-d]pyridin]-7″-one, trifluoroacetate salt] | ≤ 100 nM | ≤ 100 nM | 500 to 1250 nM | 500 to 1250 nM
CCS(=O)(=O)N1CC2(C1)CC1(C2)C(=O)N(C)c2cnc3[nH]c(-c4ccc(CN5CCC(C#N)CC5)cc4)c(-c4ccc5c(cnn5C)c4)c3c21 [Example 91, l-(4-(1-(Ethylsulfonyl)-6″-methyl-1″-(1-(methy-d3)-1H-indazol-5-yl)-7″-oxo-6″,7″-dihydro-3″H-dispiro[azetidine-3,1′-cyclobutane-3′,8″-dipyrrolo[2,3-b:3′,2′-d]pyridin]-2″-yl)benzyl)piperidine-4-carbonitrile, trifluoroacetate salt] | ≤ 100 nM | ≤ 100 nM | 1250 to 2500 nM | 1250 to 2500 nM
O=C(O)C(F)(F)F.[2H]C([2H])([2H])N1C(=O)C2(CC3(CN(S(=O)(=O)CC)C3)C2)c2c1cnc1[nH]c(-c3cnn(CC)c3)c(-c3ccc(OC)cc3)c21 [Example 95, 2″-(1-Ethyl-1H-pyrazol-4-yl)-1-(ethylsulfonyl)-1″-(4-methoxyphenyl)-6″-(methyl-d3)-3″,6″-dihydro-7″H-dispiro[azetidine-3,1′-cyclobutane-3′,8″-dipyrrolo[2,3-b:3′,2′-d]pyridin]-7″-one, trifluoroacetate salt] | ≤ 100 nM | ≤ 100 nM | 500 to 1250 nM | 500 to 1250 nM

From patent US11958861B2, “Spirocyclic lactams as JAK2 V617F inhibitors” (Incyte Corporation, priority 2021, dated 2024)
